Values of other authors, collected in publication PMC4905688 (Biomaterials, 2016).

Tested on: ischemic limbs

## VEGF
  Effect of local delivery on ischemia / vessels: modest reversal of ischemia or the development of leaky blood vessels
